Experimental data as given in patent publication US7196110B2, “N-substituted tricyclic 3-aminopyrazoles as inhibitors for the treatment of cell proliferative disorders” (Janssen Phamaceutica N.V., priority 2002, dated 2007).

Target: T1, PDGF-receptor beta enzyme comprising the tyrosine kinase domain (Homo sapiens, UniProt P09619)
T1 construct: from amino acid 545 to 1106 of GenBank Access NO: AAA36427
Experiment: Inhibition of PDGF-receptor kinase activity (cell-free, PLC1 peptide, 33P Flashplate)
Assay type: biochemical
Conditions: PDGF-R kinase activity; for inhibition at 10 µM: compound at 10 uM, read-out: Percent Inhibition @ 10 uM; for IC50: read-out: IC50
Method in brief: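 The IC50 is the inhibitor level halving kinase activity relative to inhibitor-free wells, measured as 33P captured on a streptavidin-bound biotin-PLC1 peptide. The reaction ran 60 min at 30 °C in pH 8 Tris buffer with 1 mM DTT, 5 μM ATP and the 545–1106 kinase-domain enzyme.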

T1 sequence (P09619 545-1106): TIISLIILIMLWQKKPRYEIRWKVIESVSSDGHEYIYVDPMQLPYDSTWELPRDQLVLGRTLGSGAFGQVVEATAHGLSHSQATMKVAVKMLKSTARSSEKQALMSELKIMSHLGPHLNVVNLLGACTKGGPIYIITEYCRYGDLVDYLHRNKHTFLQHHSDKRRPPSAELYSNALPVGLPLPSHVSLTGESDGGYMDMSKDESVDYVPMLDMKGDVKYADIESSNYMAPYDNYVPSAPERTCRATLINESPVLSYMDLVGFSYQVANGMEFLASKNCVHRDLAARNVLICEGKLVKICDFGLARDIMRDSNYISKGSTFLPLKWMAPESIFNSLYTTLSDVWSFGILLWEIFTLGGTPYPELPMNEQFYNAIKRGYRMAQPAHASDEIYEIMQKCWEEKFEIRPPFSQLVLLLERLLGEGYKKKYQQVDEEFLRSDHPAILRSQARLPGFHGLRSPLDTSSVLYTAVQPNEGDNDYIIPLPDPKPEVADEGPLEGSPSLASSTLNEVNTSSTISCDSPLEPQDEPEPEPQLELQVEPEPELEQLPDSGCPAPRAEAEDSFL

SMILES | inhibition at 10 µM | IC50
COc1ccc(OC)c(Nc2[nH]nc3c2Cc2c(C)cccc2-3)c1 [Compound 101, (2,5-Dimethoxy-phenyl)-(5-methyl-2,4-dihydro-indeno[1,2-c]pyrazol-3-yl)-amine] | 52% | 1.09 µM
COc1ccc(Nc2[nH]nc3c2Cc2c(C)cccc2-3)c(OC)c1 [Compound 102, (2,4-Dimethoxy-phenyl)-(5-methyl-2,4-dihydro-indeno[1,2-c]pyrazol-3-yl)-amine] | 50% | 3.4 µM
Cc1cccc2c1Cc1c-2n[nH]c1Nc1cc(F)ccc1F [Compound 103, (2,5-Difluoro-phenyl)-(5-methyl-2,4-dihydro-indeno[1,2-c]pyrazol-3-yl)-amine] | 43% | 4.1 µM
Cc1cccc2c1Cc1c-2n[nH]c1Nc1ccc(OC(F)(F)F)cc1 [Compound 104, (5-Methyl-2,4-dihydro-indeno[1,2-c]pyrazol-3-yl)-(4-trifluoromethoxy-phenyl)-amine] | 36% | 0.666 µM
Cc1cccc2c1Cc1c-2n[nH]c1Nc1ccc(C(F)(F)F)cc1 [Compound 105, (5-Methyl-2,4-dihydro-indeno[1,2-c]pyrazol-3-yl)-(4-trifluoromethyl-phenyl)-amine] | 69% | 1.88 µM
CC1c2ccccc2-c2n[nH]c(Nc3ccc(F)cc3)c21 (centres unmarked) [Compound 106, (4-Fluoro-phenyl)-(4-methyl-2,4-dihydro-indeno[1,2-c]pyrazol-3-yl)-amine] | 38% | 1.05 µM
COc1ccc(Nc2[nH]nc3c2C(C)c2ccccc2-3)cc1 (centres unmarked) [Compound 107, (4-Methoxy-phenyl)-(4-methyl-2,4-dihydro-indeno[1,2-c]pyrazol-3-yl)-amine] | 56% | 1.27 µM
CC1c2ccccc2-c2n[nH]c(Nc3cccnc3)c21 (centres unmarked) [Compound 109, (4-Methyl-2,4-dihydro-indeno[1,2-c]pyrazol-3-yl)-pyridin-3-yl-amine] | 83% | 0.537 µM
CC1c2ccccc2-c2n[nH]c(Nc3ccc(OC(F)(F)F)cc3)c21 (centres unmarked) [Compound 113, (4-Methyl-2,4-dihydro-indeno[1,2-c]pyrazol-3-yl)-(4-trifluoromethoxy-phenyl)-amine] | 60% | 2.45 µM
CC1c2ccccc2-c2n[nH]c(Nc3cccc(C(F)(F)F)c3)c21 (centres unmarked) [Compound 114, (4-Methyl-2,4-dihydro-indeno[1,2-c]pyrazol-3-yl)-(3-trifluoromethyl-phenyl)-amine] | 80% | 1.37 µM
COc1cc2c(cc1OC)-c1n[nH]c(Nc3cccc(C(=O)O)c3)c1C2 [Compound 115, 3-(6,7-Dimethoxy-2,4-dihydro-indeno[1,2-c]pyrazol-3-ylamino)-benzoic acid] | 82% | 3.06 µM
Oc1cc2c(cc1O)-c1n[nH]c(Nc3cccc(Br)c3)c1C2 [Compound 125, 3-(3-Bromo-phenylamino)-2,4-dihydro-indeno[1,2-c]pyrazole-6,7-diol] | 71% | 3.44 µM
COC(=O)c1cccc(Nc2[nH]nc3c2Cc2cc4c(cc2-3)OCO4)c1 [Compound 127, 3-(2,9-Dihydro-5,7-dioxa-2,3-diaza-cyclopenta[a]-s-indacen-1-ylamino)-benzoic acid methyl ester] | 89% | 0.421 µM
COCCCOc1ccc2c(c1)Cc1c-2n[nH]c1Nc1ccc(F)cc1 [Compound 136, (4-Fluoro-phenyl)-[6-(3-methoxy-propoxy)-2,4-dihydro-indeno[1,2-c]pyrazol-3-yl]-amine] | 64.5% | 1.33 µM
COCCCOc1ccc2c(c1)Cc1c-2n[nH]c1Nc1cccc(C(=O)OC)c1 [Compound 137, 3-[6-(3-Methoxy-propoxy)-2,4-dihydro-indeno[1,2-c]pyrazol-3-ylamino]-benzoic acid methyl ester] | 71% | 2.11 µM
COCCCOc1ccc2c(c1)Cc1c-2n[nH]c1Nc1cccnc1 [Compound 142, [6-(3-Methoxy-propoxy)-2,4-dihydro-indeno[1,2-c]pyrazol-3-yl]-pyridin-3-yl-amine] | 82.5% | 0.453 µM
COCCCOc1ccc2c(c1)Cc1c-2n[nH]c1Nc1ccc(OC)cc1 [Compound 143, (4-Methoxy-phenyl)-[6-(3-methoxy-propoxy)-2,4-dihydro-indeno[1,2-c]pyrazol-3-yl]-amine] | 67% | 8.12 µM
COc1cccc2c1Cc1c-2n[nH]c1Nc1ccc(F)cc1 [Compound 144, (4-Fluoro-phenyl)-(5-methoxy-2,4-dihydro-indeno[1,2-c]pyrazol-3-yl)-amine] | 96.5% | 0.836 µM
COc1ccc(Nc2[nH]nc3c2Cc2c(OC)cccc2-3)cc1 [Compound 145, (5-Methoxy-2,4-dihydro-indeno[1,2-c]pyrazol-3-yl)-(4-methoxy-phenyl)-amine] | 48.5% | 13.9 µM
COc1ccc(OC)c(Nc2[nH]nc3c2Cc2c(OC)cccc2-3)c1 [Compound 147, (2,5-Dimethoxy-phenyl)-(5-methoxy-2,4-dihydro-indeno[1,2-c]pyrazol-3-yl)-amine] | 32% | 2.98 µM
COc1ccc(Nc2[nH]nc3c2Cc2c(OC)cccc2-3)c(OC)c1 [Compound 148, (2,4-Dimethoxy-phenyl)-(5-methoxy-2,4-dihydro-indeno[1,2-c]pyrazol-3-yl)-amine] | 57% | 8.6 µM
COc1cccc2c1Cc1c-2n[nH]c1Nc1cccc(OC(F)(F)F)c1 [Compound 149, (5-Methoxy-2,4-dihydro-indeno[1,2-c]pyrazol-3-yl)-(3-trifluoromethoxy-phenyl)-amine] | 27.5% | 8.37 µM

Now those with a lower IC50, led by results:

inhibition at 10 µM | IC50 | SMILES
82% | 0.3 µM | CC1c2ccccc2-c2n[nH]c(Nc3cccc(F)c3)c21 (centres unmarked) [Compound 108, (3-Fluoro-phenyl)-(4-methyl-2,4-dihydro-indeno[1,2-c]pyrazol-3-yl)-amine]
80% | 0.189 µM | COc1ccc(OC)c(Nc2[nH]nc3c2C(C)c2ccccc2-3)c1 (centres unmarked) [Compound 110, (2,5-Dimethoxy-phenyl)-(4-methyl-2,4-dihydro-indeno[1,2-c]pyrazol-3-yl)-amine]
95% | 0.11 µM | COc1ccc(Nc2[nH]nc3c2C(C)c2ccccc2-3)c(OC)c1 (centres unmarked) [Compound 111, (2,4-Dimethoxy-phenyl)-(4-methyl-2,4-dihydro-indeno[1,2-c]pyrazol-3-yl)-amine]
72% | 0.083 µM | CC1c2ccccc2-c2n[nH]c(Nc3cc(F)ccc3F)c21 (centres unmarked) [Compound 112, (2,5-Difluoro-phenyl)-(4-methyl-2,4-dihydro-indeno[1,2-c]pyrazol-3-yl)-amine]
98% | 0.13 µM | Nc1ccc2c(c1)Cc1c-2n[nH]c1Nc1cccc(Br)c1 [Compound 117, N3-(3-Bromo-phenyl)-2,4-dihydro-indeno[1,2-c]pyrazole-3,6-diamine]
87% | 0.308 µM | COC(=O)c1cccc(Nc2[nH]nc3c2Cc2cc(N)ccc2-3)c1 [Compound 120, 3-(6-Amino-2,4-dihydro-indeno[1,2-c]pyrazol-3-ylamino)-benzoic acid methyl ester]
92% | 0.143 µM | Nc1ccc2c(c1)Cc1c-2n[nH]c1Nc1cccc(F)c1 [Compound 121, N3-(3-Fluoro-phenyl)-2,4-dihydro-indeno[1,2-c]pyrazole-3,6-diamine]
87% | 0.228 µM | COc1cccc(Nc2[nH]nc3c2Cc2cc(N4CCN(C)CC4)ccc2-3)c1 [Compound 123, (3-Methoxy-phenyl)-[6-(4-methyl-piperazin-1-yl)-2,4-dihydro-indeno[1,2-c]pyrazol-3-yl]-amine]
65% | 0.176 µM | c1cncc(Nc2[nH]nc3c2Cc2cc4c(cc2-3)OCO4)c1 [Compound 126, (2,9-Dihydro-5,7-dioxa-2,3-diaza-cyclopenta[a]-s-indacen-1-yl)-pyridin-3-yl-amine]
97% | 0.013 µM | COc1cccc(Nc2[nH]nc3c2Cc2cc(OCCCN4CCOCC4)c(OC)cc2-3)c1 [Compound 131, [7-Methoxy-6-(3-morpholin-4-yl-propoxy)-2,4-dihydro-indeno[1,2-c]pyrazol-3-yl]-(3-methoxy-phenyl)-amine]
87% | 0.202 µM | COCCCOc1ccc2c(c1)Cc1c-2n[nH]c1Nc1cccc(Cl)c1 [Compound 135, (3-Chloro-phenyl)-[6-(3-methoxy-propoxy)-2,4-dihydro-indeno[1,2-c]pyrazol-3-yl]-amine]
79.5% | 0.301 µM | COCCCOc1ccc2c(c1)Cc1c-2n[nH]c1Nc1cccc(F)c1 [Compound 138, (3-Fluoro-phenyl)-[6-(3-methoxy-propoxy)-2,4-dihydro-indeno[1,2-c]pyrazol-3-yl]-amine]
80% | 0.0982 µM | COCCCOc1ccc2c(c1)Cc1c-2n[nH]c1Nc1cccc(OC)c1 [Compound 139, (3-Methoxy-phenyl)-[6-(3-methoxy-propoxy)-2,4-dihydro-indeno[1,2-c]pyrazol-3-yl]-amine]
83.5% | 0.319 µM | COCCCOc1ccc2c(c1)Cc1c-2n[nH]c1Nc1cccc(Br)c1 [Compound 141, (3-Bromo-phenyl)-[6-(3-methoxy-propoxy)-2,4-dihydro-indeno[1,2-c]pyrazol-3-yl]-amine]
78.5% | 0.16 µM | COc1cccc2c1Cc1c-2n[nH]c1Nc1cccnc1 [Compound 146, (5-Methoxy-2,4-dihydro-indeno[1,2-c]pyrazol-3-yl)-pyridin-3-yl-amine]
